Results taken from ChEMBL document CHEMBL4364294 (J Med Chem, 2019).
Values after ≈ are worked out from the molar mass of the structure shown.

Tests used:
[1] = Intrinsic clearance in human liver microsomes; assay type: ADME, Microsome; conditions: read-out: CLH
[2] = Aqueous solubility of the compound at pH 1; assay type: physicochemical
[3] = Aqueous solubility of the compound at pH 6.5; assay type: physicochemical
[4] = Aqueous solubility of the compound at pH 7.4; assay type: physicochemical

predicted hepatic clearance [1] [mL/min/kg] | solubility [2] [µM] | solubility [3] [µM] | solubility [4] [µM] | SMILES
12.7 | – | – | – | O[C@@H](C[C@H]1c2c(F)cccc2-c2cncn21)[C@H]1CC[C@@H](O)CC1
15.3 | – | – | – | OC(CC1c2c(F)cccc2-c2cncn21)C1CCC(F)(F)CC1 (stereo unspecified)
8.23 | 400 (≈ 161 µg/mL) | 65 (≈ 26.1 µg/mL) | 56 (≈ 22.5 µg/mL) | O=C(N[C@H]1CC[C@@H](C(O)CC2c3ccccc3-c3cncn32)CC1)c1ccccc1 (stereo partly specified)
